In patent publication US20220364989A1, “METHOD FOR MEASURING PHOTOTOXICITY OR PHOTOALLERGY AND REAGENT FOR USE THEREIN” (FUJIFILM Corporation, priority 2018, published 2022):

Assays:
[1] = Average score of NAC and NAL depletion and phototoxicity or photoallergy determination, UV detection
[2] = Average score of NAC and NAL depletion and phototoxicity or photoallergy determination, fluorescence detection
[3] = NAL depletion under and without ultraviolet irradiation, HPLC with UV detection (281 nm)
[4] = NAL depletion under and without ultraviolet irradiation, HPLC with fluorescence detection (284 nm excitation, 333 nm fluorescence)
[5] = NAC depletion under and without ultraviolet irradiation, HPLC with UV detection (281 nm)
[6] = NAC depletion under and without ultraviolet irradiation, HPLC with fluorescence detection (284 nm excitation, 333 nm fluorescence)
[7] = photoallergic compound concentration 0.05 mg/mL
[8] = photoallergic compound concentration 0.2 mg/mL
[9] = photoallergic compound concentration 0.5 mg/mL
[10] = without light irradiation, photoallergic compound concentration 0.05 mg/mL
[11] = without light irradiation, photoallergic compound concentration 0.2 mg/mL
[12] = without light irradiation, photoallergic compound concentration 0.5 mg/mL
[13] = without light irradiation, single compound

Tetrachlorosalicylanilide [1-4]
Average score (%) under light irradiation [1, 7]: 44.0%
Average score (%) under light irradiation [1, 8]: −14.9%
Average score (%) under light irradiation [1, 9]: −128.5%
Average score (%) without light irradiation [1, 10]: 17.0%
Average score (%) without light irradiation [1, 11]: 35.4%
Average score (%) without light irradiation [1, 12]: 48.2%
Difference in depletion (under light irradiation - without light irradiation) Average score (%) [2, 7]: 54.5%
Difference in depletion (under light irradiation - without light irradiation) Average score (%) [2, 8]: 58.9%
Difference in depletion (under light irradiation - without light irradiation) Average score (%) [2, 9]: 54.3%
Average score (%) under light irradiation [2, 7]: 65.4%
Average score (%) under light irradiation [2, 8]: 85.2%
Average score (%) under light irradiation [2, 9]: 93.0%
Average score (%) without light irradiation [2, 10]: 10.9%
Average score (%) without light irradiation [2, 11]: 26.2%
Average score (%) without light irradiation [2, 12]: 38.7%
Difference in depletion (under light irradiation - without light irradiation) NAL (%) [3, 7]: 30.3%
Difference in depletion (under light irradiation - without light irradiation) NAL (%) [3, 8]: 66.5%
Difference in depletion (under light irradiation - without light irradiation) NAL (%) [3, 9]: 78.7%
NAL Depletion (%) under light irradiation [3, 7]: 30.1%
NAL Depletion (%) under light irradiation [3, 8]: 67.1%
NAL Depletion (%) under light irradiation [3, 9]: (81.3) %
NAL Depletion (%) without light irradiation [3, 10]: −0.2%
NAL Depletion (%) without light irradiation [3, 11]: 0.6%
NAL Depletion (%) without light irradiation [3, 12]: 2.6%
Difference in depletion (under light irradiation - without light irradiation) NAL (%) [4, 7]: 32.5%
Difference in depletion (under light irradiation - without light irradiation) NAL (%) [4, 8]: 72.6%
Difference in depletion (under light irradiation - without light irradiation) NAL (%) [4, 9]: 87.1%
NAL Depletion (%) under light irradiation [4, 7]: 32.5%
NAL Depletion (%) under light irradiation [4, 8]: 72.9%
NAL Depletion (%) under light irradiation [4, 9]: 88.9%
NAL Depletion (%) without light irradiation [4, 10]: 0.0%
NAL Depletion (%) without light irradiation [4, 11]: 0.2%
NAL Depletion (%) without light irradiation [4, 12]: 1.8%
NAC Depletion (%) under light irradiation [5, 7]: (58.0) %
NAC Depletion (%) under light irradiation [5, 8]: (−96.9) %
NAC Depletion (%) under light irradiation [5, 9]: (−338.2) %
NAC Depletion (%) without light irradiation [5, 10]: 34.2%
NAC Depletion (%) without light irradiation [5, 11]: 70.1%
NAC Depletion (%) without light irradiation [5, 12]: 93.7%
Difference in depletion (under light irradiation - without light irradiation) NAC (%) [6, 7]: 76.5%
Difference in depletion (under light irradiation - without light irradiation) NAC (%) [6, 8]: 45.3%
Difference in depletion (under light irradiation - without light irradiation) NAC (%) [6, 9]: 21.5%
NAC Depletion (%) under light irradiation [6, 7]: 98.2%
NAC Depletion (%) under light irradiation [6, 8]: 97.5%
NAC Depletion (%) under light irradiation [6, 9]: 97.2%
NAC Depletion (%) without light irradiation [6, 10]: 21.7%
NAC Depletion (%) without light irradiation [6, 11]: 52.2%
NAC Depletion (%) without light irradiation [6, 12]: 75.6%

NS(=O)(=O)c1cc2c(cc1Cl)NCNS2(=O)=O [2-4]
Difference in depletion (under light irradiation - without light irradiation) Average score (%) [1, 8]: 30.8%
Difference in depletion (under light irradiation - without light irradiation) Average score (%) [1, 9]: 44.5%
Average score (%) under light irradiation [1, 8]: 30.8%
Average score (%) under light irradiation [1, 9]: 44.5%
Average score (%) without light irradiation [1, 10]: 0.0%
Average score (%) without light irradiation [1, 11]: 0.0%
Average score (%) without light irradiation [1, 12]: 0.0%
Difference in depletion (under light irradiation - without light irradiation) Average score (%) [2, 7]: 12.3%
Difference in depletion (under light irradiation - without light irradiation) Average score (%) [2, 8]: 32.1%
Difference in depletion (under light irradiation - without light irradiation) Average score (%) [2, 9]: 45.8%
Average score (%) under light irradiation [2, 7]: 12.3%
Average score (%) under light irradiation [2, 8]: 32.1%
Average score (%) under light irradiation [2, 9]: 45.8%
Average score (%) without light irradiation [2, 10]: 0.0%
Average score (%) without light irradiation [2, 11]: 0.0%
Average score (%) without light irradiation [2, 12]: 0.0%
Difference in depletion (under light irradiation - without light irradiation) NAL (%) [3, 7]: 0.3%
Difference in depletion (under light irradiation - without light irradiation) NAL (%) [3, 8]: 1.4%
Difference in depletion (under light irradiation - without light irradiation) NAL (%) [3, 9]: 4.4%
NAL Depletion (%) under light irradiation [3, 7]: 0.3%
NAL Depletion (%) under light irradiation [3, 8]: 1.4%
NAL Depletion (%) under light irradiation [3, 9]: 4.4%
NAL Depletion (%) without light irradiation [3, 10]: 0.0%
NAL Depletion (%) without light irradiation [3, 11]: 0.0%
NAL Depletion (%) without light irradiation [3, 12]: 0.0%
Difference in depletion (under light irradiation - without light irradiation) NAL (%) [4, 7]: 2.6%
Difference in depletion (under light irradiation - without light irradiation) NAL (%) [4, 8]: 4.0%
Difference in depletion (under light irradiation - without light irradiation) NAL (%) [4, 9]: 5.6%
NAL Depletion (%) under light irradiation [4, 7]: 2.6%
NAL Depletion (%) under light irradiation [4, 8]: 4.0%
NAL Depletion (%) under light irradiation [4, 9]: 5.6%
NAL Depletion (%) without light irradiation [4, 10]: 0.0%
NAL Depletion (%) without light irradiation [4, 11]: 0.0%
NAL Depletion (%) without light irradiation [4, 12]: 0.0%
Difference in depletion (under light irradiation - without light irradiation) NAC (%) [5, 7]: 20.9%
Difference in depletion (under light irradiation - without light irradiation) NAC (%) [5, 8]: 60.1%
Difference in depletion (under light irradiation - without light irradiation) NAC (%) [5, 9]: 84.5%
NAC Depletion (%) under light irradiation [5, 7]: 20.9%
NAC Depletion (%) under light irradiation [5, 8]: 60.1%
NAC Depletion (%) under light irradiation [5, 9]: 84.5%
NAC Depletion (%) without light irradiation [5, 10]: 0.0%
NAC Depletion (%) without light irradiation [5, 11]: 0.0%
NAC Depletion (%) without light irradiation [5, 12]: 0.0%
Difference in depletion (under light irradiation - without light irradiation) NAC (%) [6, 7]: 21.9%
Difference in depletion (under light irradiation - without light irradiation) NAC (%) [6, 8]: 60.2%
Difference in depletion (under light irradiation - without light irradiation) NAC (%) [6, 9]: 85.9%
NAC Depletion (%) under light irradiation [6, 7]: 21.9%
NAC Depletion (%) under light irradiation [6, 8]: 60.2%
NAC Depletion (%) under light irradiation [6, 9]: 85.9%
NAC Depletion (%) without light irradiation [6, 10]: 0.0%
NAC Depletion (%) without light irradiation [6, 11]: 0.0%
NAC Depletion (%) without light irradiation [6, 12]: 0.0%

CC(O)CO (racemic) [compound 54]
Difference in depletion (under light irradiation - without light irradiation) Average score (%) ([1]; single compound): 0.1%
Average score (%) [1, 13]: 0.0%
Difference in depletion (under light irradiation - without light irradiation) Average score (%) ([2]; single compound): 0.3%
Average score (%) [2, 13]: 0.0%
Difference in depletion (under light irradiation - without light irradiation) NAL (%) ([3]; single compound): 0.0%
NAL Depletion (%) [3, 13]: 0.0%
Difference in depletion (under light irradiation - without light irradiation) NAL (%) ([4]; single compound): 0.7%
NAL Depletion (%) [4, 13]: 0.0%
Difference in depletion (under light irradiation - without light irradiation) NAC (%) ([5]; single compound): 0.2%
NAC Depletion (%) [5, 13]: 0.0%
Difference in depletion (under light irradiation - without light irradiation) NAC (%) ([6]; single compound): 0.0%
NAC Depletion (%) [6, 13]: 0.0%
